# Laboratory results reported in US7560229B2, “Methods of use of the enzymes of mycothiol synthesis” (priority 2002, dated 2009).
# Where “and” joins values, the source holds several entries; their conditions need not be identical. Equal values may be shown once. Read-outs that look alike come from different tables or passages of the source. Marks after values point to notes of the source that are not given here.
# What was measured:
# [1] = biological target: T1, M. tuberculosis MshC (Cys:GlcN-Ins ligase) (Mycobacterium tuberculosis, UniProt P9WJM9); type: biochemical
# [2] = biological target: T1, M. tuberculosis MshC (Cys:GlcN-Ins ligase); conditions: for activity as alternative substrate to Cys: 80 μM to 1.6 mM
# [3] = system: M. smegmatis MSH deficient mutants (Tn1, Tn2, I64); type: cell-based
# N[C@@H](CS)C(=O)O = test: purified protein, by the assay type; conditions: 37.0 °C
# [4] = biological target: T1, M. tuberculosis MshC (Cys:GlcN-Ins ligase); type: biochemical; conditions: 0.1-5 mM, FIG. 16
# [5] = biological target: T1, M. tuberculosis MshC (Cys:GlcN-Ins ligase); type: biochemical; conditions: 2, 10, 50 or 100 μM zinc chloride, FIG. 16
# T1 sequence (P9WJM9 whole entry): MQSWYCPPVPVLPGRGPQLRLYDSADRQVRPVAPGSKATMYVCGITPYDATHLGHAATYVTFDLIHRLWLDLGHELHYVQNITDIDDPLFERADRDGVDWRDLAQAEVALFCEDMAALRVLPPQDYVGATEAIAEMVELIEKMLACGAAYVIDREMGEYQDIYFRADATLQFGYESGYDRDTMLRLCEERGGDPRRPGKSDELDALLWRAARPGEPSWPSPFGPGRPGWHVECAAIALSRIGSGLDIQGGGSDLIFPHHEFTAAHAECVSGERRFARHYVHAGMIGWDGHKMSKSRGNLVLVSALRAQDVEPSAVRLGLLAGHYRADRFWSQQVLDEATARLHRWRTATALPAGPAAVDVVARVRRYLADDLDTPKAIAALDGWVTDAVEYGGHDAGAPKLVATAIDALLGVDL
compound,measurement,setting,value
N[C@H](CS)C(=O)O [D-Cys],% inhibition,[1],15 ± 8%
same,inhibition of ligase activity,[1],Only very minor inhibition
same,relative spec. act.,[2],≦0.7
same,activity as alternative substrate to Cys,[2],poor substrate
NC(=O)c1cnccn1 [pyrazinamide],difference in sensitivity between mutants,[3],no significant difference
"N[C@@H](CS)C(=O)N[C@H]1[C@@H](OC2[C@H](O)[C@H](O)C(O)[C@H](O)[C@H]2O)O[C@H](CO)[C@@H](O)[C@@H]1O (stereo partly drawn) [Cys-GlcN-Ins, 1D-myo-inosityl 2-L-cysteinylamido-2-deoxy-α-D-glucopyranoside]",inhibition,[1],< 1.0%
N[C@@H](CCS)C(=O)O [L-homocysteine],inhibition of ligase activity,[1],Only very minor inhibition
same,relative spec. act.,[2],≦0.2
same,activity as alternative substrate to Cys,[2],Nor was significant activity detected
"CC(=O)N[C@@H](CS)C(=O)N[C@H]1[C@@H](OC2[C@H](O)[C@H](O)C(O)[C@H](O)[C@H]2O)O[C@H](CO)[C@@H](O)[C@@H]1O (stereo partly drawn) [MSH, 1D-myo-inosityl 2-(N-acetylcysteinyl)amido-2-deoxy-α-D-glucopyranoside]",% inhibition,[1],4 ± 3% and 7 ± 5%
same,inhibition of ligase activity,"[1]; 1 and 5 mM, physiologic levels",minimal inhibition
M. tuberculosis MshC (Cys:GlcN-Ins ligase) (Mycobacterium tuberculosis H37Rv),Km,N[C@@H](CS)C(=O)O,70 ± 15 µM and 85 ± 20 µM
"N[C@H]1[C@@H](OC2[C@H](O)[C@H](O)C(O)[C@H](O)[C@H]2O)O[C@H](CO)[C@@H](O)[C@@H]1O (stereo partly drawn) [GlcN-Ins, 1D-myo-inosityl 2-amino-2-deoxy-α-D-glucopyranoside]",apparent Vmax (GlcN-Ins varied),[2],1160 ± 120 nmol/min/mg
same,Km,[2]; read-out: apparent Km for GlcN-Ins,280 ± 43 µM
"CC(=O)N[C@@H](CS)C(=O)O [AcCys, N-acetylcysteine]",inhibition of ligase activity,[1],minor inhibition
same,relative spec. act.,[2],≦0.24
same,activity as alternative substrate to Cys,[2],Nor was significant activity detected
"N[C@@H](CS)C(=O)O [Cys, L-cysteine]",Specific activity,[2],^cSpecific activity 108 nmol min^−1 mg^−1.
same,apparent Vmax (L-Cys varied),[2],1450 ± 200 nmol/min/mg
same,relative spec. act.,[2],(100)^c
Nc1ncnc2c1ncn2[C@@H]1O[C@H](COP(=O)(O)OP(=O)(O)OP(=O)(O)O)[C@@H](O)[C@H]1O [ATP],decline of reaction rate,[2],2.2 fold
CC[C@@H](CO)NCCN[C@@H](CC)CO [ethambutol],difference in sensitivity between mutants,[3],no significant difference
NCCS [cysteamine],inhibition of ligase activity,[1],best inhibitor
same,reduction in rate,[1],3 fold
same,relative spec. act.,[2],≦0.16
same,activity as alternative substrate to Cys,[2],"Neither β-mercaptopropionic acid nor cysteamine, derived from Cys by removal of the amino and carboxyl groups, respectively, produced evidence of reaction"
N[C@@H](CO)C(=O)O [L-serine],inhibition of ligase activity,[1],Only very minor inhibition
same,relative spec. act.,[2],≦0.008
same,activity as alternative substrate to Cys,[2],Nor was significant activity detected
"O=C(O)CCS [β-mercaptopropionate, β-mercaptopropionic acid]",inhibition of ligase activity,[1],minor inhibition
same,relative spec. act.,[2],≦0.004
same,activity as alternative substrate to Cys,[2],"Neither β-mercaptopropionic acid nor cysteamine, derived from Cys by removal of the amino and carboxyl groups, respectively, produced evidence of reaction"
C[C@H](N)C(=O)O [L-alanine],inhibition of ligase activity,[1],Only very minor inhibition
same,relative spec. act.,[2],≦0.016
same,activity as alternative substrate to Cys,[2],Nor was significant activity detected
"c1cnc2c(c1)ccc1cccnc12 [1,10-phenanthroline]",effect of metal chelation on enzyme activity,[4],no significant loss of activity
CC[C@H](N)C(=O)O [L-α-aminobutyric acid],inhibition of ligase activity,[1],Only very minor inhibition
"[Cl-].[Cl-].[Zn+2] [Zn^2+, zinc chloride]",effect of supplementation on enzyme activity,[5],loss in activity
"N[C@H]1C(O)O[C@H](CO)[C@@H](O)[C@@H]1O (stereo partly drawn) [D-GlcN, D-glucosamine]",activity relative to GlcN-Ins,[2],~1%
same,relative spec. act.,[2],1.2
